# Assay results as given in patent US11000537B2, “Composition comprising novel ginsenoside” (AMOREPACIFIC CORPORATION, priority 2018, dated 2021).
# What was measured:
# 3T1-L1 adipocytes = assay: glucose uptake (glucose transport) in differentiated adipocytes; format: cell-based; conditions: 10 μM, FIG. 13
# Experimental: 3T1-L1 adipocytes (ATCC) were purchased, and 10% bovine calf serum (Hyclone) and 1% penicillin/streptomycin (Sigma) were added to a Dulbecco's Modified Eagle's Medium (Sigma) and cultured in a 5% CO2 culture medium. In order to differentiate preadipocyte cells into adipocytes, a culture plate was filled with cells and cultured for 48 hours. The cells were then replaced in a DMEM medium to which 10% fetal bovine serum (FBS) (Hyclone), 0.5 mM 3-isobutyl-1-methylxanthine (Sigma), 1 μM dexamethasone (Sigma), 5 μg/ml insulin (Sigma), and 1% penicillin/streptomycin were added and cultured for another 48 hours. Thereafter, the cells were further cultured for 14 days while being replaced in a medium containing 10% FBS, 5 μg/ml insulin, and 1% penicillin/streptomycin at two-day intervals to obtain fully differentiated adipocytes. […] As a positive control for measuring glucose uptake in blood, Metformin (Sigma; 10 μM), which is used as a diabetic therapeutic agent, was used, and novel ginsenoside GS #10, which is an example of the present disclosure, isolated from Ginseng seed extract and ginsenosides GS #01-GS #06, which are comparative examples of the present disclosure, were treated with 10 μM each. In addition, both insulin-dependent/independent glucose transport capacity was measured by treating insulin together, which may promote glucose uptake.
# α-glucosidase = α-glucosidase enzyme activity inhibition; format: biochemical; conditions: Test Example 1, FIG. 12; ginseng seed ginsenosides compared
# Experimental: (§1) As a polysaccharide degrading enzyme, pancreatic α-amylase and α-glucosidase were purchased from Sigma, and the enzyme activity of novel ginsenoside GS #10, which is an example of the present disclosure, isolated from Ginseng seed extract and ginsenosides GS #01-GS #06, which are comparative examples of the present disclosure, was measured. In order to measure α-amylase activity, enzyme solution was prepared by dissolving BSA 0.1 g, 0.01 g/L NaN3, α-amylase 0.2857 g in 50 mL of PBS (phosphate buffered saline), and 5 mM of p-nitrophenyl-α-D-maltopentoglycoside was dissolved in another PBS to make a substrate solution. 0.1 mL of the test substance was added to 0.5 mL of the enzyme solution, and then the initial absorbance was measured at 405 nm. After adding 0.5 mL of the substrate solution and reacting it for 5 minutes, the absorbance was measured again. The change in enzyme activity was measured by the difference in absorbance between the two reactions. The method for measuring α-glucosidase activity is the same as the method for measuring α-amylase activity, and differs only in α-glucosidase and substrate (p-nitrophenyl-α-D-glucopyranoside). As a positive control to observe the inhibition of enzyme activity, acarbose, which is an α-amylase inhibitor and α-glucosidase inhibitor derived from wheat seed sold by Sigma, was used.
# pancreatic lipase = pancreatic lipase activity inhibition (Pancreatic Lipase Activity Assay Kit); format: cell-based; conditions: 10 μM, 1 hour; FIG. 22
# Experimental: The hepatocyte cell line HepG2 purchased from the International Center for Biological Resources (ATCC) were placed in Dulbecco's Modified Eagle's Medium (Sigma) to which 10% fetal bovine serum (Hyclone) and 1% penicillin/streptomycin (Sigma) were added, and cultured in a 5% CO2 incubator. As a positive control for the cells, Xenical (Sigma), which are used as pancreatic lipase inhibitors and anti-obesity therapeutic agents, and seven types of ginsenosides (GS #01-GS #06, GS #10; 10 μM each) extracted from Ginseng seed were treated for 1 hour. In addition, Pancreatic Lipase Activity Assay Kit (Abcam) was used to observe the inhibition of each lipase activity.
# adipocyte cell 3T3-L1 = assay: fat accumulation in adipocytes (Oil-red O staining); format: cell-based; conditions: 10 μM during 48 hours of differentiation; FIG. 34
# Experimental: The adipocyte cell 3T3-L1 purchased from the International Center for Biological Resources (ATCC) were placed in Dulbecco's Modified Eagle's Medium (Sigma) to which 10% fetal bovine serum (Hyclone) and 1% penicillin/streptomycin (Sigma) were added, and cultured in a 5% CO2 incubator. In order to differentiate preadipocytes into adipocytes, the cells were filled in a culture plate and cultured. After 48 hours, the cells were replaced with Dulbecco's modified eagle medium (DMEM) to which 10% of fetal bovine serum (Hyclone), 0.5 mM of 3-isobutyl-1-methylxanthine (Sigma), 1 μM of dexamethasone (Sigma), 5 μg/ml of insulin (Sigma), 1% of penicillin/streptomycin (Sigma) were added and further cultured for 48 hours. […] As a control to confirm the effect of inhibiting adipocyte differentiation, 20 μM of bisphenol A diglycidyl ether (BADGE) (Sigma), a PPARγ (Peroxisome proliferator-activated receptor gamma) antagonist, was used. Thereafter, the cells were further cultured for 10 days while being replaced with a medium containing 10% FBS and 5 μg/ml insulin and 1% penicillin/streptomycin at two-day intervals to induce adipocyte differentiation.
# Differentiated adipocytes treated with each of the seven types of ginsenosides were fixed with formaldehyde solution (Sigma), stained with Oil-red O staining solution (Sigma), and then dissolved with isopropanol (Sigma), and then the amount of the stained fat was quantified by measuring at 490 nm absorbance.
# pancreatic α-amylase = biological target: T1, pancreatic α-amylase (Sus scrofa, UniProt P00690); assay: α-amylase enzyme activity inhibition; format: biochemical; conditions: Test Example 1, FIG. 11; ginseng seed ginsenosides compared
# T1 construct: purchased Sigma
# T1 sequence (P00690 16-511): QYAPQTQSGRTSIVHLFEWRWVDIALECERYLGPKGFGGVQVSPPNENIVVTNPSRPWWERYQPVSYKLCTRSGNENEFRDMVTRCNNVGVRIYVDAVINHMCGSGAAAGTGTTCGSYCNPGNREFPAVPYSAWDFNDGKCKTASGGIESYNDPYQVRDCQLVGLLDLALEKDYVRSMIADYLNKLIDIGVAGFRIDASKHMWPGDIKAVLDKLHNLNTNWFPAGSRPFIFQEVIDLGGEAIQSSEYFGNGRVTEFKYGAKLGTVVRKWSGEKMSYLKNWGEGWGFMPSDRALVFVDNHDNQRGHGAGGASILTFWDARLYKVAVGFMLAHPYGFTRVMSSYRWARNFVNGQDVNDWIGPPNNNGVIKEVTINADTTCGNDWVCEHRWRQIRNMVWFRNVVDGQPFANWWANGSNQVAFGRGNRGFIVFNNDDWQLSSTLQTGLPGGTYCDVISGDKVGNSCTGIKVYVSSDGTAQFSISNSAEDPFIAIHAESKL
# Experimental: as §1
# [1] = combined with insulin (+insulin)
# [2] = material-only treatment (−insulin)
SMILES,glucose transport promotion (3T1-L1 adipocytes; [1]),glucose transport promotion (3T1-L1 adipocytes; [2]),α-glucosidase activity inhibitory effect (α-glucosidase),pancreatic lipase activity inhibitory effect (pancreatic lipase),fat accumulation inhibitory effect in adipocytes (adipocyte cell 3T3-L1),α-amylase activity inhibitory effect (pancreatic α-amylase)
"CC(C)=CCC[C@](C)(O[C@@H]1O[C@H](CO)[C@@H](O)[C@H](O)[C@H]1O)[C@H]1CC[C@]2(C)[C@@H]1[C@H](O)C[C@@H]1[C@@]3(C)CC[C@H](O)C(C)(C)[C@@H]3[C@@H](O[C@@H]3O[C@H](CO)[C@@H](O)[C@H](O)[C@H]3O)C[C@]12C [GS #01, ginsenoside Rg1]",further increase by insulin treatment,statistically significant glucose transport promotion,,,,
"CC(C)=CCC[C@](C)(O)[C@H]1CC[C@]2(C)[C@@H]1[C@H](O)C[C@@H]1[C@@]3(C)CC[C@H](O)C(C)(C)[C@@H]3[C@@H](O[C@@H]3O[C@H](CO)[C@@H](O)[C@H](O)[C@H]3O[C@@H]3O[C@@H](C)[C@H](O)[C@@H](O)[C@H]3O)C[C@]12C [GS #02, ginsenoside Rg2]",further increase by insulin treatment,statistically significant glucose transport promotion,,,,
"CC(C)=CCC[C@](C)(O[C@@H]1O[C@H](CO)[C@@H](O)[C@H](O)[C@H]1O)[C@H]1CC[C@]2(C)[C@@H]1[C@H](O)C[C@@H]1[C@@]3(C)CC[C@H](O)C(C)(C)[C@@H]3[C@@H](O[C@@H]3O[C@H](CO)[C@@H](O)[C@H](O)[C@H]3O[C@@H]3O[C@@H](C)[C@H](O)[C@@H](O)[C@H]3O)C[C@]12C [GS #03, ginsenoside Re]",further increase by insulin treatment,statistically significant glucose transport promotion,,,,
"CC(C)=CCC[C@](C)(O[C@@H]1O[C@H](CO[C@@H]2O[C@H](CO)[C@@H](O)[C@H](O)[C@H]2O)[C@@H](O)[C@H](O)[C@H]1O)[C@H]1CC[C@]2(C)[C@@H]1[C@H](O)C[C@@H]1[C@@]3(C)CC[C@H](O[C@@H]4O[C@H](CO)[C@@H](O)[C@H](O)[C@H]4O[C@@H]4O[C@H](CO)[C@@H](O)[C@H](O)[C@H]4O)C(C)(C)[C@@H]3CC[C@]12C [GS #05, ginsenoside Rb1, reference compound]",,,no activity inhibitory effect,"except for some of the previously known ginsenosides (GS #05, GS #06), all showed a significant inhibitory effect","except some (GS #05, GS #06) of seven types of ginsenosides (GS #01-GS #06, GS #10; 10 μM each) extracted from Ginseng seeds, all of them was observed to reduce the amount of fats in adipocytes",
"CC(C)=CCC[C@](C)(O[C@@H]1O[C@H](CO[C@@H]2OC[C@H](O)[C@H](O)[C@H]2O)[C@@H](O)[C@H](O)[C@H]1O)[C@H]1CC[C@]2(C)[C@@H]1[C@H](O)C[C@@H]1[C@@]3(C)CC[C@H](O[C@@H]4O[C@H](CO)[C@@H](O)[C@H](O)[C@H]4O[C@@H]4O[C@H](CO)[C@@H](O)[C@H](O)[C@H]4O)C(C)(C)[C@@H]3CC[C@]12C [GS #06, ginsenoside Rb2, reference compound]",,,no activity inhibitory effect,"except for some of the previously known ginsenosides (GS #05, GS #06), all showed a significant inhibitory effect","except some (GS #05, GS #06) of seven types of ginsenosides (GS #01-GS #06, GS #10; 10 μM each) extracted from Ginseng seeds, all of them was observed to reduce the amount of fats in adipocytes",all except GS #06 showed significant activity inhibitory effect
"CN(C)C(=N)N=C(N)N [metformin, Metformin]",the glucose transport is further increased as compared with the insulin-only treatment group,,,,,
